Experimental data: US20130072430A1, “METHODS FOR TREATMENT OR PROPHYLAXIS OF KIDNEY OR LIVER DYSFUNCTION” (NPS PHARMACEUTICALS, INC., priority 2010, published 2013)

System: Human patients with short bowel syndrome
Experiment: Example 1: liver diagnostic biomarkers (total bilirubin, ALT, AST, ALP) in short bowel syndrome patients, every four weeks for 24 weeks
Format: in vivo
Design: AST (SGOT) Change from Baseline, Median / ALT (SGPT), Median / TOTAL BILIRUBIN, Median / TOTAL BILIRUBIN Change from Baseline, Median / ALT (SGPT) Change from Baseline, Median / AST (SGOT), Median: unit not given here
Protocol: Human patients with short bowel syndrome were divided into three groups: a control group (16 total individuals) to receive placebo, an experimental group (35 total individuals) to receive teduglutide at 0.05 mg/kg/day throughout the study, and an experimental group (32 total individuals) to receive teduglutide at 0.1 mg/kg/day throughout the study. Patients were treated by subcutaneous injection of placebo or the appropriate dose of teduglutide. As individuals with short bowel syndrome are likely to experience associated liver and kidney disease, known biomarkers of liver and kidney function were monitored every four weeks, for 24 weeks. The liver biomarkers tested included total bilirubin, ALT and AST and ALP. The kidney biomarkers tested included urea nitrogen, creatinine and GFR. Before administration of placebo or teduglutide, diagnostic biomarker levels were tested to establish a baseline for each individual.
To visualize the effect of GLP-2 on the levels of the diagnostic biomarkers, the average change from baseline was calculated for the placebo and teduglutide treated groups for each visit after a baseline was established. The average change from baseline of each group is depicted in FIGS. […]. The numerical figures for each diaanostic biomarker at each time point are depicted in Table 1.
The efficacy of teduglutide in treating liver dysfunction was further tested by sorting the data into two groups: individuals with abnormal baseline values of liver diagnostic biomarkers; and individuals with normal baseline values of liver diagnostic biomarkers. The mean diagnostic biomarker change from baseline for these two groups is shown for ALT (FIGS. 5 and 6) and AST (FIGS. 7 and 8). […] These changes were significant when compared to baseline levels for the group, and when compared to placebo (see FIGS. 5 and 7).
The raw data for this sorting is reproduced in Table 2 below.

Q: What does the source list for `CC[C@H](C)[C@H](NC(=O)[C@H](Cc1ccccc1)NC(=O)[C@H](CC(=O)O)NC(=O)[C@H](CCCNC(=N)N)NC(=O)[C@H](C)NC(=O)[C@H](C)NC(=O)[C@H](CC(C)C)NC(=O)[C@H](CC(N)=O)NC(=O)[C@H](CC(=O)O)NC(=O)[C@H](CC(C)C)NC(=O)[C@@H](NC(=O)[C@@H](NC(=O)[C@H](CC(N)=O)NC(=O)[C@H](CCSC)NC(=O)[C@H](CCC(=O)O)NC(=O)[C@H](CC(=O)O)NC(=O)[C@H](CO)NC(=O)[C@H](Cc1ccccc1)NC(=O)[C@H](CO)NC(=O)CNC(=O)[C@H](CC(=O)O)NC(=O)CNC(=O)[C@@H](N)Cc1c[nH]cn1)[C@@H](C)O)[C@@H](C)CC)C(=O)N[C@@H](CC(N)=O)C(=O)N[C@@H](Cc1c[nH]c2ccccc12)C(=O)N[C@@H](CC(C)C)C(=O)N[C@H](C(=O)N[C@@H](CCC(N)=O)C(=O)N[C@H](C(=O)N[C@@H](CCCCN)C(=O)N[C@H](C(=O)N[C@H](C(=O)N[C@@H](CC(=O)O)C(=O)O)[C@@H](C)O)[C@@H](C)CC)[C@@H](C)O)[C@@H](C)CC` [teduglutide]?
A: ALT (SGPT) Change from Baseline, Median (0.05 mg/kg/day, DW24): −5.0; ALT (SGPT), Mean (SD) (0.05 mg/kg/day, DW24): 31.7 (26.63); ALT (SGPT), Median (0.05 mg/kg/day, DW24): 20.0; AST (SGOT) Change from Baseline, Mean (SD) (0.05 mg/kg/day, DW24): −6.8 (14.29); AST (SGOT) Change from Baseline, Median (0.05 mg/kg/day, DW24): −4.5; AST (SGOT), Mean (SD) (0.05 mg/kg/day, DW24): 27.7 (10.23); AST (SGOT), Median (0.05 mg/kg/day, DW24): 25.0; TOTAL BILIRUBIN Change from Baseline, Mean (SD) (0.05 mg/kg/day, DW24): −0.5 (7.11); TOTAL BILIRUBIN Change from Baseline, Median (0.05 mg/kg/day, DW24): 0.0; TOTAL BILIRUBIN, Mean (SD) (0.05 mg/kg/day, DW24): 10.0 (6.28); TOTAL BILIRUBIN, Median (0.05 mg/kg/day, DW24): 8.0; ALKALINE PHOSPHATASE Change from Baseline, Mean (SD) (0.10 mg/kg/day, DW4): −11.3 (32.19); ALKALINE PHOSPHATASE Change from Baseline, Median (0.10 mg/kg/day, DW4): −10.5; ALKALINE PHOSPHATASE, Mean (SD) (0.10 mg/kg/day, DW4): 147.5 (74.98); ALKALINE PHOSPHATASE, Median (0.10 mg/kg/day, DW4): 124.0; ALT (SGPT) Change from Baseline, Mean (SD) (0.10 mg/kg/day, DW4): −11.6 (22.98); ALT (SGPT) Change from Baseline, Median (0.10 mg/kg/day, DW4): −6.5; ALT (SGPT), Mean (SD) (0.10 mg/kg/day, DW4): 38.6 (23.30); ALT (SGPT), Median (0.10 mg/kg/day, DW4): 30.0; AST (SGOT) Change from Baseline, Mean (SD) (0.10 mg/kg/day, DW4): −7.3 (15.21); AST (SGOT) Change from Baseline, Median (0.10 mg/kg/day, DW4): −5.0; AST (SGOT), Mean (SD) (0.10 mg/kg/day, DW4): 33.5 (17.00); AST (SGOT), Median (0.10 mg/kg/day, DW4): 28.0; TOTAL BILIRUBIN Change from Baseline, Mean (SD) (0.10 mg/kg/day, DW4): −4.0 (17.41); TOTAL BILIRUBIN Change from Baseline, Median (0.10 mg/kg/day, DW4): −1.0; TOTAL BILIRUBIN, Mean (SD) (0.10 mg/kg/day, DW4): 9.0 (5.65); TOTAL BILIRUBIN, Median (0.10 mg/kg/day, DW4): 7.0; ALKALINE PHOSPHATASE Change from Baseline, Mean (SD) (0.10 mg/kg/day, DW8): −21.2 (41.41); ALKALINE PHOSPHATASE Change from Baseline, Median (0.10 mg/kg/day, DW8): −20.0; ALKALINE PHOSPHATASE, Mean (SD) (0.10 mg/kg/day, DW8): 139.2 (75.84); ALKALINE PHOSPHATASE, Median (0.10 mg/kg/day, DW8): 114.0; ALT (SGPT) Change from Baseline, Mean (SD) (0.10 mg/kg/day, DW8): −15.7 (26.87); ALT (SGPT) Change from Baseline, Median (0.10 mg/kg/day, DW8): −8.0; ALT (SGPT), Mean (SD) (0.10 mg/kg/day, DW8): 34.1 (19.74); ALT (SGPT), Median (0.10 mg/kg/day, DW8): 28.5; AST (SGOT) Change from Baseline, Mean (SD) (0.10 mg/kg/day, DW8): −10.3 (16.56); AST (SGOT) Change from Baseline, Median (0.10 mg/kg/day, DW8): −5.0; AST (SGOT), Mean (SD) (0.10 mg/kg/day, DW8): 29.3 (12.52); AST (SGOT), Median (0.10 mg/kg/day, DW8): 28.0; TOTAL BILIRUBIN Change from Baseline, Mean (SD) (0.10 mg/kg/day, DW8): −3.8 (13.91); TOTAL BILIRUBIN Change from Baseline, Median (0.10 mg/kg/day, DW8): −1.0; TOTAL BILIRUBIN, Mean (SD) (0.10 mg/kg/day, DW8): 9.4 (9.80); TOTAL BILIRUBIN, Median (0.10 mg/kg/day, DW8): 7.0; ALKALINE PHOSPHATASE Change from Baseline, Mean (SD) (0.10 mg/kg/day, DW12): −13.1 (55.43); ALKALINE PHOSPHATASE Change from Baseline, Median (0.10 mg/kg/day, DW12): −16.5; ALKALINE PHOSPHATASE, Mean (SD) (0.10 mg/kg/day, DW12): 145.9 (83.34); ALKALINE PHOSPHATASE, Median (0.10 mg/kg/day, DW12): 115.0; ALT (SGPT) Change from Baseline, Mean (SD) (0.10 mg/kg/day, DW12): −10.6 (30.82); ALT (SGPT) Change from Baseline, Median (0.10 mg/kg/day, DW12): −11.0; ALT (SGPT), Mean (SD) (0.10 mg/kg/day, DW12): 40.4 (22.11); ALT (SGPT), Median (0.10 mg/kg/day, DW12): 35.0; AST (SGOT) Change from Baseline, Mean (SD) (0.10 mg/kg/day, DW12): −3.3 (21.39); AST (SGOT) Change from Baseline, Median (0.10 mg/kg/day, DW12): −3.5; AST (SGOT), Mean (SD) (0.10 mg/kg/day, DW12): 36.4 (20.41); AST (SGOT), Median (0.10 mg/kg/day, DW12): 31.5; TOTAL BILIRUBIN Change from Baseline, Mean (SD) (0.10 mg/kg/day, DW12): −2.9 (12.93); TOTAL BILIRUBIN Change from Baseline, Median (0.10 mg/kg/day, DW12): 0.0; TOTAL BILIRUBIN, Mean (SD) (0.10 mg/kg/day, DW12): 10.3 (11.39); TOTAL BILIRUBIN, Median (0.10 mg/kg/day, DW12): 7.0; ALKALINE PHOSPHATASE Change from Baseline, Mean (SD) (0.10 mg/kg/day, DW16): −21.3 (59.79); ALKALINE PHOSPHATASE Change from Baseline, Median (0.10 mg/kg/day, DW16): −20.5; ALKALINE PHOSPHATASE, Mean (SD) (0.10 mg/kg/day, DW16): 137.7 (81.33); ALKALINE PHOSPHATASE, Median (0.10 mg/kg/day, DW16): 108.5; ALT (SGPT) Change from Baseline, Mean (SD) (0.10 mg/kg/day, DW16): −10.0 (35.59); ALT (SGPT) Change from Baseline, Median (0.10 mg/kg/day, DW16): −10.0; ALT (SGPT), Mean (SD) (0.10 mg/kg/day, DW16): 39.7 (27.97); ALT (SGPT), Median (0.10 mg/kg/day, DW16): 30.0; AST (SGOT) Change from Baseline, Mean (SD) (0.10 mg/kg/day, DW16): −6.6 (22.80); AST (SGOT) Change from Baseline, Median (0.10 mg/kg/day, DW16): −4.0; AST (SGOT), Mean (SD) (0.10 mg/kg/day, DW16): 33.0 (16.71); AST (SGOT), Median (0.10 mg/kg/day, DW16): 30.0; TOTAL BILIRUBIN Change from Baseline, Mean (SD) (0.10 mg/kg/day, DW16): −3.6 (14.89); TOTAL BILIRUBIN Change from Baseline, Median (0.10 mg/kg/day, DW16): −0.5; TOTAL BILIRUBIN, Mean (SD) (0.10 mg/kg/day, DW16): 9.8 (9.14); TOTAL BILIRUBIN, Median (0.10 mg/kg/day, DW16): 7.5; ALKALINE PHOSPHATASE Change from Baseline, Mean (SD) (0.10 mg/kg/day, DW20): −18.5 (63.67); ALKALINE PHOSPHATASE Change from Baseline, Median (0.10 mg/kg/day, DW20): −23.0; ALKALINE PHOSPHATASE, Mean (SD) (0.10 mg/kg/day, DW20): 137.1 (82.59); ALKALINE PHOSPHATASE, Median (0.10 mg/kg/day, DW20): 107.0; ALT (SGPT) Change from Baseline, Mean (SD) (0.10 mg/kg/day, DW20): −8.2 (37.70); ALT (SGPT) Change from Baseline, Median (0.10 mg/kg/day, DW20): −9.0; ALT (SGPT), Mean (SD) (0.10 mg/kg/day, DW20): 41.3 (29.36); ALT (SGPT), Median (0.10 mg/kg/day, DW20): 29.0; AST (SGOT) Change from Baseline, Mean (SD) (0.10 mg/kg/day, DW20): −4.9 (24.96); AST (SGOT) Change from Baseline, Median (0.10 mg/kg/day, DW20): −2.5; AST (SGOT), Mean (SD) (0.10 mg/kg/day, DW20): 34.9 (19.82)
